In the test the target is T1, acetylcholinesterase (AChE) (Homo sapiens, UniProt P22303).
T1 construct: recombinant acetylcholinesterase (AChE) expressed in HEK 293 cells
T1 sequence (P22303 32-614): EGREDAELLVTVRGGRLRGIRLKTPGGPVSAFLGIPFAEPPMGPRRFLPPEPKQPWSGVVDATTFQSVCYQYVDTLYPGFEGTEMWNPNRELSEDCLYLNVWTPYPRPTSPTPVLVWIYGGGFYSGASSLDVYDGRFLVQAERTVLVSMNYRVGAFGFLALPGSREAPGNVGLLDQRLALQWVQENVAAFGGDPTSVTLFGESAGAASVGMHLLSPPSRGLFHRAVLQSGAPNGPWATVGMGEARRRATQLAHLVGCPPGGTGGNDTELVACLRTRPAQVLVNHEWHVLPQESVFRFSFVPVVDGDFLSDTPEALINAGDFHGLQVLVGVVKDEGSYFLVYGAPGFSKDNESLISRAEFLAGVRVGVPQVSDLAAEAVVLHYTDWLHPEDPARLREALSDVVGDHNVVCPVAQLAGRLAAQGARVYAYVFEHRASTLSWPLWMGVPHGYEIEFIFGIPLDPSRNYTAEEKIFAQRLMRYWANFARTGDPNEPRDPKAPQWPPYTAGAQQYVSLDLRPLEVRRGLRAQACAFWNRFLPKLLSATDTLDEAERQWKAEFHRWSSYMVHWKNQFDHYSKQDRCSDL
The experiment in a line: Ellman assay, percent inhibition at […]. Format: biochemical. (In general: Ellman's reagent forms a yellow product with free thiols.)
As a reminder, the inhibition is the change of the read-out against control, counted positive when it falls. Consider `O=C1c2ccccc2C2=NCCc3cccc1c32` [OXO 1, 2,3-dihydro-7H-dibenzo[de,h]quinolin-7-one], for which 75 µM produced 26.2 ± 5.6% inhibition.
In turn, `O=C1C2=C(CCCC2)C2=NCCc3cccc1c32` [OXO 13, 2,3,8,9,10,11-hexahydro-7H-dibenzo[de,h]quinolin-7-one] had an inhibition at 75 µM of 25.6 ± 5.9%.
Then `C#CCN[C@@H]1CCc2ccccc21` [Rasagiline, reference compound], with 82.5 ± 4.3%.

(Values after publication PMC3812281, “Synthetic Oxoisoaporphine Alkaloids: In Vitro, In Vivo and In Silico Assessment of Antileishmanial Activities” (PLoS ONE, 2013).)
